In publication PMC11378297, “Discovery and Profiling of New Multimodal Phenylglycinamide Derivatives as Potent Antiseizure and Antinociceptive Drug Candidates” (ACS Chemical Neuroscience, 2024):
Where two headings read alike, the source gives them in different places.

Experiments:
[1] = target: T1, TRPA1 (h) (Homo sapiens, UniProt O75762); assay: TRPA1 (h) cell based antagonist calcium flux assay; conditions: HEK293, human recombinant HEK-293 cell, read-out: % inhibition of control agonist response
T1 construct: Eurofins
T1 sequence (O75762 whole entry): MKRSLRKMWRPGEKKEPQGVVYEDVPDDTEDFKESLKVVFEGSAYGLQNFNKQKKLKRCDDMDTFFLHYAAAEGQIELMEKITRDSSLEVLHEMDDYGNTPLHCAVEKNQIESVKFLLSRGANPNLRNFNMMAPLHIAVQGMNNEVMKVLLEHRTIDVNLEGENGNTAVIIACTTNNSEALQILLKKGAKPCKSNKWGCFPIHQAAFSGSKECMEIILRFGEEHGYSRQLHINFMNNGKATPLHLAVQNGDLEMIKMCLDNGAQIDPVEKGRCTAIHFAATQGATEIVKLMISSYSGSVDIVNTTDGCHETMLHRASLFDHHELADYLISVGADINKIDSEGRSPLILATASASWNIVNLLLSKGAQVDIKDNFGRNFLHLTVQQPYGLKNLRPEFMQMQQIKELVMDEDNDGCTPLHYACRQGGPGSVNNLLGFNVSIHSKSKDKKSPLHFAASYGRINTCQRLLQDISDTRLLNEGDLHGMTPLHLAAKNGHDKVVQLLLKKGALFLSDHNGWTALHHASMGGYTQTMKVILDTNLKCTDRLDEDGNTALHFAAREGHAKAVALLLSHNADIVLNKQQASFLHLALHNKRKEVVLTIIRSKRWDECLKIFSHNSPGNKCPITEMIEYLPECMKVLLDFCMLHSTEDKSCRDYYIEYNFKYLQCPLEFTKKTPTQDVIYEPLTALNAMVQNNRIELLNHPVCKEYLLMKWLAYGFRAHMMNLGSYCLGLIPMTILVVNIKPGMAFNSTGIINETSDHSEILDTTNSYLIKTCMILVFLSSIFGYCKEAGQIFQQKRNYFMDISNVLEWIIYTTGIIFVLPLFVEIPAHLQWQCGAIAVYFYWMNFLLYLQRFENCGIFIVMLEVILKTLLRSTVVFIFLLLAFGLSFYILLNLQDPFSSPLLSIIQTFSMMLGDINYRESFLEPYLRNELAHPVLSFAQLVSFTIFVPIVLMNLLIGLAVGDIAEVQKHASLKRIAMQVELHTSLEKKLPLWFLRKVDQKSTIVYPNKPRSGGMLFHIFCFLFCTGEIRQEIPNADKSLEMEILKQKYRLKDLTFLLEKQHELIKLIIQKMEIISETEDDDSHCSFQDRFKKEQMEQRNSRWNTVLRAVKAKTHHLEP
Procedure: Using previously described testing methodologies, binding/functional tests were conducted on a commercial basis at Eurofins Laboratories (Poitiers, France) and Eurofins Panlabs Discovery Services Taiwan, Ltd. (New Taipei City, Taiwan); see Table S9 for more information.
Table S9. Radioligand binding and functional assays. […]
TRPA1 (h) transient potential ion channel cell based antagonist calcium flux assay […]
Assays were performed commercially in Eurofins Laboratories (Poitiers, France) or Eurofins Panlabs Discovery Services
Taiwan, Ltd. (New Taipei City, Taiwan).

[2] = target: T2, Voltage-Gated Sodium channel hNav1.6 (Homo sapiens, UniProt Q9UQD0); assay: human sodium ion channel cell based automated patch clamp assay, hNav1.6
T2 construct: Eurofins Discovery (St. Charles, MO, USA)
T2 sequence (Q9UQD0 whole entry): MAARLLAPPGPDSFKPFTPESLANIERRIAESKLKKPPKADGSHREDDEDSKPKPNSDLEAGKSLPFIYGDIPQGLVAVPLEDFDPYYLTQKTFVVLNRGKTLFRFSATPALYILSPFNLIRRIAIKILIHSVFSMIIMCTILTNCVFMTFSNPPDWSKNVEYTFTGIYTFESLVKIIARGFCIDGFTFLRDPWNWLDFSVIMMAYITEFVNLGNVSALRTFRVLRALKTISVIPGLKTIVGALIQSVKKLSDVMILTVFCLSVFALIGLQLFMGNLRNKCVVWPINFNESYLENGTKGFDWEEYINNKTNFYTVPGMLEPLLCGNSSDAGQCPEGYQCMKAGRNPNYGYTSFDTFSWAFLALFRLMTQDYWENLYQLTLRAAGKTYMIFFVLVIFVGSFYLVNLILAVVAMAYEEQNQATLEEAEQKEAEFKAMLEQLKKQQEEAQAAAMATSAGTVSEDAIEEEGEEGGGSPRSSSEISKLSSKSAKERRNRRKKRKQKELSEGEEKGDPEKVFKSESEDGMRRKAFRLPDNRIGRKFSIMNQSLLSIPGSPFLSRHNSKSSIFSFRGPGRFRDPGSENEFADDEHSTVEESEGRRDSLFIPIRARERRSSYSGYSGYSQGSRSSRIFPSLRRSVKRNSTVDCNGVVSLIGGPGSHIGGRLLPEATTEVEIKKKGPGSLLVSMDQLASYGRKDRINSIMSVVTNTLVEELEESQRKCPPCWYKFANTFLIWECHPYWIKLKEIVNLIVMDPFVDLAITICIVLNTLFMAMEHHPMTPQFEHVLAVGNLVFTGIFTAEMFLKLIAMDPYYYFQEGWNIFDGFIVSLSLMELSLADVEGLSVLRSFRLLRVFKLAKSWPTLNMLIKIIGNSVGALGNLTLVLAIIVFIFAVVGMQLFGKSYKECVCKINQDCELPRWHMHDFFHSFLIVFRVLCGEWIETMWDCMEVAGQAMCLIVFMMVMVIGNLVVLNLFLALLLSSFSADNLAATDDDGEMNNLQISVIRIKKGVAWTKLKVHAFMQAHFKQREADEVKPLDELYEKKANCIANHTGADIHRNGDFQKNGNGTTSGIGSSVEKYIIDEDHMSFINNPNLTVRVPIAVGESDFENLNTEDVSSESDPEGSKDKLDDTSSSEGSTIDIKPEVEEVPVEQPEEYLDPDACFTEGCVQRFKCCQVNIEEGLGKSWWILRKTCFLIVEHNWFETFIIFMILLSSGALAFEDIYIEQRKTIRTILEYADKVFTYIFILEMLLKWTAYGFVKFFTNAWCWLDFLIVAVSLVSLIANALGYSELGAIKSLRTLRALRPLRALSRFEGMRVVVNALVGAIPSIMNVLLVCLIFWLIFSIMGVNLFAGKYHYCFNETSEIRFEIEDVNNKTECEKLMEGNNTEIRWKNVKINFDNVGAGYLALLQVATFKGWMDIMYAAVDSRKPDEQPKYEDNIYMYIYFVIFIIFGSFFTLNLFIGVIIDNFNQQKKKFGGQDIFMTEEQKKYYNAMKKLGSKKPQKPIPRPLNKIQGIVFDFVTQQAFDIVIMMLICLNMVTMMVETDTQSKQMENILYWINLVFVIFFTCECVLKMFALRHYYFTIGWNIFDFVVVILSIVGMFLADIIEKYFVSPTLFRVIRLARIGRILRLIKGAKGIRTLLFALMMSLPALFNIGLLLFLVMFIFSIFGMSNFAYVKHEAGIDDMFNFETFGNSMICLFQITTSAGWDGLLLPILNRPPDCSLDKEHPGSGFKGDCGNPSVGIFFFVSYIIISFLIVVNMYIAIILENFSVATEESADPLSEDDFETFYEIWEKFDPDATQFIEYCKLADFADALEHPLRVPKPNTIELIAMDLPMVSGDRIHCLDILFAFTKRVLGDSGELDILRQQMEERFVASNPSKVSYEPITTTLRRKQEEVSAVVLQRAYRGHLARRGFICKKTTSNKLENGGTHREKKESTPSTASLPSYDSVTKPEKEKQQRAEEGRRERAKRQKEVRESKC
Procedure: (§1) Therefore, as a part of the more detailed functional characterization using automated patch clamp method, we tested the influence of (R)-32 on sodium currents mediated by several Navx channels comprising 5 different human subunits, namely, Nav1.1, Nav1.2, Nav1.3, Nav1.6, and Nav1.7, which are involved in both seizure and/or pain modulation.[74],[80],[81] As summarized in Tables S4–S8, (R)-32 starting from 10 μM effectively and in concentration-dependent manner decreased sodium currents mediated by all aforementioned sodium channel subunits. Furthermore, (R)-32 appeared to bind exclusively to sodium channels that are in an inactivated state (see pulse 2 in Tables S4–S8), but not to the channels that are in an open state (pulse 1) (for additional details, see Supporting Information).
(§2) Human sodium ion channels cell based automated patch clamp assay
(§3) Human sodium ion channels cell based automated patch clamp assays: sodium channels exist in, a) a resting or closed state at -120 mV, b) a transient open state that inactivates to c) inactivated state at -10 mV. Sodium current inhibition within 1-2 ms of channel opening at 0 mV is open channel inhibition (pulse 1). In order to completely inactivate the sodium channels and facilitate inactivated state-dependent binding of the drug, the channels were kept at […] ( -10 mV) longer (pulsed for 500 ms) and then stepped back to -120 mV for 10 ms to recover from inactivation into resting or closed state (but the channels that had drug bound to them will not recover from inactivation and will not open) before stepping to -10 mV for 50 ms (pulse 2) to mea sure sodium channels that are available to open. The higher inhibition seen at pulse 2 is due to inactivated state -dependent inhibition. Pulse 1 and 2 are used to investigate drug binding to the open state and inactivated state of the Na channels, respectively. Each concentration of compound is applied for 5 minutes. The results obtained for (R)-32 are summerized in Tables S4–S8. […]
(§4) Compound Concentration Measurement % Inhibition
(§5) Data interpretation: Results showing inhibition greater than 50% are considered to represent significant effects of test compound and have been bolded for (R)-32 for better visualization. The studies were carried out in Eurofins Discovery (St. Charles, MO, USA).

[3] = target: T3, Voltage-Gated Sodium channel hNav1.2 (Homo sapiens, UniProt Q99250); assay: human sodium ion channel cell based automated patch clamp assay, hNav1.2
T3 construct: Eurofins Discovery (St. Charles, MO, USA)
T3 sequence (Q99250 whole entry): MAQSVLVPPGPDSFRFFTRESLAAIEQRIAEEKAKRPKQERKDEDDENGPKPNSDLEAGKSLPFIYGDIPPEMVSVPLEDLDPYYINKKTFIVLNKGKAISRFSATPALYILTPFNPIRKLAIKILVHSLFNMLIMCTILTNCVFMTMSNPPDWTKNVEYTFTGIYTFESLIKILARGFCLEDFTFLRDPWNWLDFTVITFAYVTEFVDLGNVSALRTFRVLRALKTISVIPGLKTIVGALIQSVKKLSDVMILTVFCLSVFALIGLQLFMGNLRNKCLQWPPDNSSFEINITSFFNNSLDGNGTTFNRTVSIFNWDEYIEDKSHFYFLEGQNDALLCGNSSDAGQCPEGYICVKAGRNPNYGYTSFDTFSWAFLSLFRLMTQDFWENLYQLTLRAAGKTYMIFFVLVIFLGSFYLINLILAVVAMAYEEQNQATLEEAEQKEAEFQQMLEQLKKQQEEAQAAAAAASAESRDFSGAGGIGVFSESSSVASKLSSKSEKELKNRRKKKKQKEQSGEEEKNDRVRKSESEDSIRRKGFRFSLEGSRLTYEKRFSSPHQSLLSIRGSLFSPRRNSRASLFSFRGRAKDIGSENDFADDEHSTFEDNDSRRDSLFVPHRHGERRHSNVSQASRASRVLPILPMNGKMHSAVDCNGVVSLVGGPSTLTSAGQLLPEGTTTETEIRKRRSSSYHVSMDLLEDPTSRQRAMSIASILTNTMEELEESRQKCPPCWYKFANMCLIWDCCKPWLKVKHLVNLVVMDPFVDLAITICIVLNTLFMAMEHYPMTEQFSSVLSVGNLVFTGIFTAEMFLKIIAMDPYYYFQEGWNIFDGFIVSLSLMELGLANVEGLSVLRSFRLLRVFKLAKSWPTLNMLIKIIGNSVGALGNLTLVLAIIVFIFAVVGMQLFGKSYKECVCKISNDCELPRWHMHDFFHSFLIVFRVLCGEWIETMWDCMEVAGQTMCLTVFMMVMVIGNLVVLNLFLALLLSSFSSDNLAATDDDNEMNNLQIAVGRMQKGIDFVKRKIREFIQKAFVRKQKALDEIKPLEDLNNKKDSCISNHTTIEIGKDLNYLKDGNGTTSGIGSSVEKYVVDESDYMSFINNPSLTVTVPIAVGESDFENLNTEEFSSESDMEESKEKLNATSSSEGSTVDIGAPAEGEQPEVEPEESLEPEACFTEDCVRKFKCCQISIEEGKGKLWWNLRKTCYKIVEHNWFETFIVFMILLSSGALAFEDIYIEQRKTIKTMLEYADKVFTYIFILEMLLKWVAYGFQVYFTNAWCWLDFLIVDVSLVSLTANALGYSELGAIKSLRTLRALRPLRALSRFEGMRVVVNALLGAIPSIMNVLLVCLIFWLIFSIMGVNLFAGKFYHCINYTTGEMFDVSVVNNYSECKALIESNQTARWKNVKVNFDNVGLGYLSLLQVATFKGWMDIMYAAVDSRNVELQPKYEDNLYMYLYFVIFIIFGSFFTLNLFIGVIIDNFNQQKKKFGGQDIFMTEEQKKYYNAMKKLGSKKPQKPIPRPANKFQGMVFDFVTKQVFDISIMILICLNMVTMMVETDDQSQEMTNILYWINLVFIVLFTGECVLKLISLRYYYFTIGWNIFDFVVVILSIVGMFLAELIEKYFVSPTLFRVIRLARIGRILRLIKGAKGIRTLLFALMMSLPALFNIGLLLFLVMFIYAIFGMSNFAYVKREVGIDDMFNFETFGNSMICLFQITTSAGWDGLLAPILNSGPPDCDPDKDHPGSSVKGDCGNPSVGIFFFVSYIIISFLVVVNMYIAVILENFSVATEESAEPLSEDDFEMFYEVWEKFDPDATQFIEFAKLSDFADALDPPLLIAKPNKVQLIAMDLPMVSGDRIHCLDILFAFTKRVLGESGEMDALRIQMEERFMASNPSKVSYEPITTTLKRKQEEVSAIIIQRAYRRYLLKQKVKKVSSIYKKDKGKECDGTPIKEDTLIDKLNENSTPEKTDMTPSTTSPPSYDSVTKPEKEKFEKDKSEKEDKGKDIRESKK
Procedure: as §1, §2, §3, §4, §5

[4] = target: T4, Voltage-Gated Sodium channel hNav1.1 (Homo sapiens, UniProt P35498); assay: human sodium ion channel cell based automated patch clamp assay, hNav1.1
T4 construct: Eurofins Discovery (St. Charles, MO, USA)
Procedure: as §1, §2
Human sodium ion channels cell based automated patch clamp assays: sodium channels exist in, a) a resting or closed state at -120 mV, b) a transient open state that inactivates to c) inactivated state at -10 mV. Sodium current inhibition within 1-2 ms of channel opening at 0 mV is open channel inhibition (pulse 1). In order to completely inactivate the sodium channels and facilitate inactivated state-dependent binding of the drug, the channels were kept at […] ( -10 mV) longer (pulsed for 500 ms) and then stepped back to -120 mV for 10 ms to recover from inactivation into resting or closed state (but the channels that had drug bound to them will not recover from inactivation and will not open) before stepping to -10 mV for 50 ms (pulse 2) to mea sure sodium channels that are available to open. The higher inhibition seen at pulse 2 is due to inactivated state -dependent inhibition. Pulse 1 and 2 are used to investigate drug binding to the open state and inactivated state of the Na channels, respectively. Each concentration of compound is applied for 5 minutes. The results obtained for (R)-32 are summerized in Tables S4–S8.
Table S4. Effect of the (R)-32 on subunit Nav1.1.
Voltage-Gated Sodium channel hNav1.1
as §4, §5

[5] = hNav1.6, Pulse 1 (open state), read-out: % Inhibition Mean
[6] = hNav1.6, Pulse 1 (open state), read-out: % Inhibition n1
[7] = hNav1.6, Pulse 1 (open state), read-out: % Inhibition n2
[8] = hNav1.6, Pulse 2 (inactivated state), read-out: % Inhibition Mean
[9] = hNav1.6, Pulse 2 (inactivated state), read-out: % Inhibition n1
[10] = hNav1.6, Pulse 2 (inactivated state), read-out: % Inhibition n2
[11] = hNav1.2, Pulse 1 (open state), read-out: % Inhibition Mean
[12] = hNav1.2, Pulse 1 (open state), read-out: % Inhibition n1
[13] = hNav1.2, Pulse 1 (open state), read-out: % Inhibition n2
[14] = hNav1.2, Pulse 2 (inactivated state), read-out: % Inhibition Mean
[15] = hNav1.2, Pulse 2 (inactivated state), read-out: % Inhibition n1
[16] = hNav1.2, Pulse 2 (inactivated state), read-out: % Inhibition n2
[17] = hNav1.1, Pulse 1 (open state), read-out: % Inhibition Mean
[18] = hNav1.1, Pulse 1 (open state), read-out: % Inhibition n1
[19] = hNav1.1, Pulse 1 (open state), read-out: % Inhibition n2
[20] = hNav1.1, Pulse 2 (inactivated state), read-out: % Inhibition Mean
[21] = hNav1.1, Pulse 2 (inactivated state), read-out: % Inhibition n1
[22] = hNav1.1, Pulse 2 (inactivated state), read-out: % Inhibition n2

For `CC(=O)N[C@@H](C(=O)N1CCN(c2cccc(C(F)(F)F)c2)CC1)c1ccccc1` [(R)-31, (R)-N-(2-Oxo-1-phenyl-2-(4-(3-(trifluoromethyl)phenyl)piperazin-1-yl)ethyl)acetamide], the inhibition at 10 µM [1] was 13.3%.
In the case of `CCCCNc1ccc(C(=O)OCCN(C)C)cc1` [Tetracaine, reference compound], the inhibition at 3 µM [2, 5] is reported as 4.79%, the inhibition at 3 µM [2, 6] is reported as 7.73% and the inhibition at 3 µM [2, 7] is reported as 1.85%. For the same compound, the inhibition at 30 µM [2, 5] was 34.7%, the inhibition at 30 µM [2, 6] was 34.7% and the inhibition at 30 µM [2, 7] was 34.7%. The inhibition at 300 µM [2, 5] was 75%, the inhibition at 300 µM [2, 6] was 68.2% and the inhibition at 300 µM [2, 7] was 81.8%. The inhibition at 3 µM [2, 8] was 86.4%, the inhibition at 3 µM [2, 9] was 80.8% and the inhibition at 3 µM [2, 10] was 91.9%. The inhibition at 30 µM [2, 8] was 99.2%, the inhibition at 30 µM [2, 9] was 95.7% and the inhibition at 30 µM [2, 10] was 103%. For the same compound, the inhibition at 300 µM [2, 8] was 97.9%, the inhibition at 300 µM [2, 9] was 91.3% and the inhibition at 300 µM [2, 10] was 104%. It also gave an inhibition at 3 µM [3, 11] of -2.64%, an inhibition at 3 µM [3, 12] of 5.99% and an inhibition at 3 µM [3, 13] of -11.3%. The inhibition at 30 µM [3, 11] was 14%, the inhibition at 30 µM [3, 12] was 19% and the inhibition at 30 µM [3, 13] was 8.92%. For the same compound, the inhibition at 300 µM [3, 11] was 70%, the inhibition at 300 µM [3, 12] was 64.9% and the inhibition at 300 µM [3, 13] was 75.1%. The inhibition at 3 µM [3, 14] was 54.9%, the inhibition at 3 µM [3, 15] was 55.2% and the inhibition at 3 µM [3, 16] was 54.7%. For the same compound, the inhibition at 30 µM [3, 14] was 99.6%, the inhibition at 30 µM [3, 15] was 98.8% and the inhibition at 30 µM [3, 16] was 100%. For the same compound, the inhibition at 300 µM [3, 14] was 101%, the inhibition at 300 µM [3, 15] was 99.9% and the inhibition at 300 µM [3, 16] was 101%. For the same compound, the inhibition at 3 µM [4, 17] was 3.28%, the inhibition at 3 µM [4, 18] was 4.33% and the inhibition at 3 µM [4, 19] was 2.23%. It also gave an inhibition at 30 µM [4, 17] of 16.2%, an inhibition at 30 µM [4, 18] of 20.5% and an inhibition at 30 µM [4, 19] of 11.9%. The inhibition at 300 µM [4, 17] was 89.7%, the inhibition at 300 µM [4, 18] was 91% and the inhibition at 300 µM [4, 19] was 88.4%. For the same compound, the inhibition at 3 µM [4, 20] was 54.9%, the inhibition at 3 µM [4, 21] was 58.3% and the inhibition at 3 µM [4, 22] was 51.5%. The inhibition at 30 µM [4, 20] was 95.7%, the inhibition at 30 µM [4, 21] was 96.6% and the inhibition at 30 µM [4, 22] was 94.8%. The inhibition at 300 µM [4, 20] was 101%, the inhibition at 300 µM [4, 21] was 102% and the inhibition at 300 µM [4, 22] was 100%.
